Target: T1, Gag-Pol polyprotein [588-1027]/[588-1147] (Human immunodeficiency virus 1, UniProt P04585)
T1 construct: 588-1027; 588-1147
Experiment: HIV-1 RT Assay
Conditions: pH 8.2; 37 °C

SMILES	IC50 [nM]
CC(=O)Nc1ccc2c(c1)C(C#CC1CC1)(C(F)(F)F)OC(=O)N2 (configuration not stated)	> 2000
CC(=O)Nc1ccc2c(c1)C(C#CC(C)C)(C(F)(F)F)OC(=O)N2 (configuration not stated)	> 2000

— BindingDB's records for doi:10.1016/s0960-894x(99)00565-x (Dupont Pharmaceuticals, 1999)
